In patent US20210221848A1, “POLYMYXIN DERIVATIVES AND THEIR USE IN COMBINATION THERAPY TOGETHER WITH DIFFERENT ANTIBIOTICS” (priority 2014, published 2021):
≈ marks a conversion by molar mass, not a printed value. Where two headings read alike, the source gives them in different places. Bridge positions count the residues as written; N and C are the ends. Square brackets hold non-standard residues; d marks the D form. Peptide text beside a SMILES is read from it. * marks the point of attachment. aThr = C[C@H](O)[C@H](N)C(=O)O; X2 = CC(C)CN1CCNC[C@H]1C(=O)*; Dab = NCC[C@H](N)C(=O)O

Experiments:
E. coli [1] = assay: MIC in 1:1 (wt:wt) combination with Rifampicin; assay type: cell-based, Escherichia coli; settings: 1:1 (wt:wt) with Rifampicin, total drug concentration
Experimental: (§1) The inoculum was prepared by making a direct suspension of isolated colonies (selected from an 18-24 hour Mueller-Hinton agar plate) adjusted to the 0.5 McFarland standard. […] The assays were performed in duplicate. […] In cases where the duplicate values varied by less than 2-fold, the lower of the two values is reported. If a variation of greater than 2-fold was observed, the assay was considered non-valid. Several of the compounds were subjected to multiple tests, and where this is the case, the MIC reflects the modal value obtained.
(§2) MIC values (microgram/mL) refer to the total drug concentration (i.e. test agent plus Rifampicin).

K. pneumoniae [2] = assay: MIC in 1:1 (wt:wt) combination with Rifampicin; assay type: cell-based, Klebsiella pneumoniae; settings: 1:1 (wt:wt) with Rifampicin, total drug concentration
Experimental: as §1, §2

[3] = tested on: K. pneumoniae strains with elevated MICs to Polymyxin B; assay: MIC against strains with elevated MICs to Polymyxin B; assay type: cell-based, Klebsiella pneumoniae; settings: Table 6D; for MIC K. pneumoniae 062: strain 062, elevated MIC to Polymyxin B; for MIC K. pneumoniae 063: strain 063, elevated MIC to Polymyxin B; for MIC K. pneumoniae 064: strain 064, elevated MIC to Polymyxin B; for MIC K. pneumoniae 655: strain 655, elevated MIC to Polymyxin B
How it was run: (§3)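 Polymyxin B-resistant isolates were inoculated from 0.5 McFarland suspensions of 18-24 hour Mueller-Hinton agar colonies. Testing was done twice per compound, and results disagreeing by over 2-fold were discarded as non-valid. For compounds assayed several times, the modal MIC is given.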

[4] = tested on: P. aeruginosa strains with elevated MICs to Polymyxin B; assay: as above; assay type: cell-based, Pseudomonas aeruginosa; settings: Table 6D; for MIC P. aeruginosa 065: strain 065, elevated MIC to Polymyxin B; for MIC P. aeruginosa 066: strain 066, elevated MIC to Polymyxin B; for MIC P. aeruginosa 067: strain 067, elevated MIC to Polymyxin B
How it was run: as §3

[5] = tested on: Acinetobacter baumannii NCTC 13301; settings: mouse thigh, 16 h model
P. aeruginosa [6] = assay: MIC in 1:1 (wt:wt) combination with Rifampicin; assay type: cell-based, Pseudomonas aeruginosa; settings: 1:1 (wt:wt) with Rifampicin, total drug concentration
Experimental: as §1, §2

K. pneumoniae [7] = settings: for MIC, K. pneumoniae ATCC 4352 / MIC, K. pneumoniae ATCC BAA-2146: absence of a second agent, Table 6B
P. aeruginosa [8] = settings: absence of a second agent, Table 6B
A. baumannii [9] = settings: absence of a second agent, Table 6B
[10] = tested on: Pseudomonas aeruginosa ATCC 27853; assay type: in vivo
Experimental: Groups of 7 male neutropenic specific-pathogen-free CD-1 mice weighing 21.5-27.5 g were used. On Day 0, animals were infected with 0.04 mL inoculum by intranasal instillation into mouse nostrils and were kept in an upright position on a string rack for ˜10 min post-infection. […] At 2 h, the CFU count was determined from 3 mice and the remaining mice (7 per test compound groups) were treated with a subcutaneous injection of the drug at +2, 6 and 10 hr post-infection. Test compounds and the comparator polymyxin B were administered at four concentrations (2.6, 8.6, 17.2 and 25.8 mg/kg free base). The vehicle control group (7 mice) was treated with 0.9% saline for injection at 2, 6 and 10 h post-infection.
Sixteen hours after infection, the mice were euthanized humanely. The lungs of each animal were harvested, homogenized and quantitatively cultured onto CLED agar for CFU determination. Decrease of the total CFU compared to control counts at 16 h post-infection was determined for each dose group.
The in vivo efficacy of 4 compounds of the invention (D25, D36, D42 and D50) was evaluated in a mouse lung infection model of P. aeruginosa ATCC 27853. The model was setup as described above with the exception that groups of up to 8 mice were inoculated through intranasal instillation of ˜2.5×10^6 CFUs of P. aeruginosa isolate ATCC 27853 (1.0×10^5 CFU/lung). Test compounds were administered at two concentrations (equivalent to 4.3 and 17.2 mg/kg free base). Three dose levels of polymyxin B sulfate were used as comparator (equivalent to 4.3, 8.6 and 17.2 mg/kg free base).

A. baumannii [11] = assay: MIC in 1:1 (wt:wt) combination with Rifampicin; assay type: cell-based, Acinetobacter baumannii; settings: A. baumannii 053; 1:1 (wt:wt) with Rifampicin; total drug concentration
Experimental: as §1, §2

E. coli [12] = settings: absence of a second agent, Table 6B
[13] = tested on: E. coli strains with elevated MICs to Polymyxin B; assay: MIC against strains with elevated MICs to Polymyxin B; assay type: cell-based, Escherichia coli; settings: Table 6D; for MIC E. coli 058: strain 058, elevated MIC to Polymyxin B; for MIC E. coli 059: strain 059, elevated MIC to Polymyxin B; for MIC E. coli 060: strain 060, elevated MIC to Polymyxin B; for MIC E. coli 061: strain 061, elevated MIC to Polymyxin B
How it was run: as §3

[14] = tested on: A. baumanii strains with elevated MICs to Polymyxin B; assay: as above; assay type: cell-based, Acinetobacter baumannii; settings: Table 6D; for MIC A. baumannii 053: strain 053, elevated MIC to Polymyxin B; for MIC A. baumannii 056: strain 056, elevated MIC to Polymyxin B; for MIC A. baumannii 068: strain 068, elevated MIC to Polymyxin B; for MIC A. baumannii 070: strain 070, elevated MIC to Polymyxin B
How it was run: as §3

HK-2 cell line = assay: In vitro renal cell toxicity assay (resazurin reduction)
Experimental: MICs were determined as described herein. HK-2 cell IC50 values were determined as described herein. Values are reported relative to Polymyxin B.

[15] = mouse lungs, P. aeruginosa ATCC 27853, SC at 2, 6 and 10 h post-infection, 16 h infection model, 17.2 mg/kg/dose free base

| Compound | MIC K. pneumoniae 062 [3] | MIC K. pneumoniae 063 [3] | MIC K. pneumoniae 064 [3] | MIC K. pneumoniae 655 [3] | MIC P. aeruginosa 065 [4] | MIC P. aeruginosa 066 [4] | MIC P. aeruginosa 067 [4] | MIC, K. pneumoniae ATCC 4352 (K. pneumoniae [7]) | MIC, K. pneumoniae ATCC BAA-2146 (K. pneumoniae [7]) | MIC, P. aeruginosa ATCC 27853 (P. aeruginosa [8]) | MIC, P. aeruginosa CCUG 59347 (P. aeruginosa [8]) | MIC, A. baumannii ATCC BAA-747 (A. baumannii [9]) | MIC, A. baumannii NCTC 13424 (A. baumannii [9]) | Mean log10 CFU reduction vs. control [10, 15] | MIC, E. coli ATCC 25922 (E. coli [12]) | MIC, E. coli NCTC 13441 (E. coli [12]) | MIC E. coli 058 [13] | MIC E. coli 059 [13] | MIC E. coli 060 [13] | MIC E. coli 061 [13] | also measured |
| --- | --- | --- | --- | --- | --- | --- | --- | --- | --- | --- | --- | --- | --- | --- | --- | --- | --- | --- | --- | --- | --- |
| (trans-5-(2- methylpropyl) piperidine)-3-carbonyl polymyxin B nonapeptide [Example D50] | 64 micrograms/mL | 16 micrograms/mL | 4 micrograms/mL | 16 micrograms/mL | 6 micrograms/mL | 4 micrograms/mL | >256 micrograms/mL | 0.06 micrograms/mL | 0.125 micrograms/mL | 0.5 micrograms/mL | 1 micrograms/mL | 0.25 micrograms/mL | 0.25 micrograms/mL | 5.29 log10 CFU | 0.06 micrograms/mL | 0.06 micrograms/mL | 4 micrograms/mL | 8 micrograms/mL | 4 micrograms/mL | 8 micrograms/mL | MIC in 1:1 combination with rifampicin, E. coli 059 (E. coli [1]; E. coli 059): ≤0.5 microgram/mL; MIC in 1:1 combination with rifampicin, E. coli 060 (E. coli [1]; E. coli 060): ≤0.5 microgram/mL; MIC in 1:1 combination with rifampicin, E. coli ATCC 25922 (E. coli [1]; E. coli ATCC 25922): ≤0.5 microgram/mL; MIC in 1:1 combination with rifampicin, K. pneumoniae 062 (K. pneumoniae [2]; K. pneumoniae 062): 1 microgram/mL; MIC in 1:1 combination with rifampicin, K. pneumoniae CCUG 59348 (K. pneumoniae [2]; K. pneumoniae CCUG 59348): ≤0.5 microgram/mL; Mean log10 CFU reduction vs. control ([5]; 0.215 mg/kg/dose free base SC at 2, 6 and 10 h post-infection): 0.69 log10 CFU; Mean log10 CFU reduction vs. control ([5]; 0.86 mg/kg/dose free base SC at 2, 6 and 10 h post-infection): 4.74 log10 CFU; Mean log10 CFU reduction vs. control ([5]; 2.6 mg/kg/dose free base SC at 2, 6 and 10 h post-infection): 5.05 log10 CFU; Mean log10 CFU reduction vs. control ([5]; 8.6 mg/kg/dose free base SC at 2, 6 and 10 h post-infection): 5.79 log10 CFU; Mean log10 CFU reduction vs. control ([5]; 17.2 mg/kg/dose free base SC at 2, 6 and 10 h post-infection): 5.69 log10 CFU; MIC in 1:1 combination with rifampicin, P. aeruginosa 063 (P. aeruginosa [6]; P. aeruginosa 063): 32 microgram/mL; MIC in 1:1 combination with rifampicin, P. aeruginosa 068 (P. aeruginosa [6]; P. aeruginosa 068): 1 microgram/mL; MIC in 1:1 combination with rifampicin, A. baumannii 053 (A. baumannii [11]): ≤0.5 microgram/mL; MIC A. baumannii 053 [14]: 128 micrograms/mL; MIC A. baumannii 056 [14]: 32 micrograms/mL; MIC A. baumannii 068 [14]: 8 micrograms/mL; MIC A. baumannii 070 [14]: 16 micrograms/mL |
| 3(S)-3-aminomethyl-5- methyl hexanoyl L- Thr-L-Dap-polymyxin B heptapeptide [Example D42] | >256 micrograms/mL | 64 micrograms/mL | 16 micrograms/mL | 64 micrograms/mL | 4 micrograms/mL | 32 micrograms/mL | >256 micrograms/mL | 0.125 micrograms/mL | 0.5 micrograms/mL | 0.25 micrograms/mL | 0.5 micrograms/mL | 0.25 micrograms/mL | 0.5 micrograms/mL | 5.34 log10 CFU | 0.25 micrograms/mL | 0.25 micrograms/mL | 8 micrograms/mL | 16 micrograms/mL | 16 micrograms/mL | 32 micrograms/mL | MIC A. baumannii 053 [14]: >256 micrograms/mL; MIC A. baumannii 056 [14]: 256 micrograms/mL; MIC A. baumannii 068 [14]: 16 micrograms/mL; MIC A. baumannii 070 [14]: 128 micrograms/mL |
| CC(C)C[C@@H]1NC(=O)[C@@H](Cc2ccccc2)NC(=O)[C@H](CCN)NC(=O)[C@@H](NC(=O)[C@H](CCN)NC(=O)[C@@H](NC(=O)[C@@H]2CNCCN2CC(C)C)[C@H](C)O)CCNC(=O)[C@H]([C@@H](C)O)NC(=O)[C@H](CCN)NC(=O)[C@H](CCN)NC1=O [Example D36, (S)-1-(2-methylpropyl)-piperazine-2-carbonyl polymyxin B nonapeptide] (X2-[aThr][Dab][Dab][Dab][dF]L[Dab][Dab]T; lactam 3-C) |  |  |  |  |  |  |  |  |  |  |  |  |  |  |  |  |  |  |  |  | MIC (K. pneumoniae [7]): 0.25 µg/mL (≈ 0.221 µM); Mean log10 CFU reduction vs. control ([10]; ATCC 27853, in vivo, sc, 17.2 mg/kg, 10 h): 5.30 log10 CFU; HK-2 IC50 rel to PMB (HK-2 cell line): 4.5 |
